Laboratory results taken from publication PMC9090415, “Discovery of small molecule inhibitors of Plasmodium falciparum apicoplast DNA polymerase” (Journal of Enzyme Inhibition and Medicinal Chemistry, 2022).

Molecular target: P. falciparum apicoplast DNA polymerase (Pf-apPOL) (Plasmodium falciparum, UniProt Q8ILY1)
Assay: Fluorescence-based high-throughput DNA polymerase assay (molecular beacon), primary screen and dose-response;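 for % inhibition ApPOL 90': test concentration in µM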;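 for % inhibition apPOL 180': test concentration in µM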
Format: biochemical
How it was run: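 Single-point screening used 10 µM compound with 20 nM polymerase, 20 nM hairpin substrate and 6 µM dNTPs for 90 min at 25 °C. Confirmatory titrations (2.5–80 µM) followed fluorescence at three times, and IC50 was derived from a fit including a cooperativity term n.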

[1] = supplemental file 2, sheet IC50 nontoxic compounds; Pf-apPOL

P. falciparum apicoplast DNA polymerase (Pf-apPOL), sequence (Q8ILY1 entry or part of it): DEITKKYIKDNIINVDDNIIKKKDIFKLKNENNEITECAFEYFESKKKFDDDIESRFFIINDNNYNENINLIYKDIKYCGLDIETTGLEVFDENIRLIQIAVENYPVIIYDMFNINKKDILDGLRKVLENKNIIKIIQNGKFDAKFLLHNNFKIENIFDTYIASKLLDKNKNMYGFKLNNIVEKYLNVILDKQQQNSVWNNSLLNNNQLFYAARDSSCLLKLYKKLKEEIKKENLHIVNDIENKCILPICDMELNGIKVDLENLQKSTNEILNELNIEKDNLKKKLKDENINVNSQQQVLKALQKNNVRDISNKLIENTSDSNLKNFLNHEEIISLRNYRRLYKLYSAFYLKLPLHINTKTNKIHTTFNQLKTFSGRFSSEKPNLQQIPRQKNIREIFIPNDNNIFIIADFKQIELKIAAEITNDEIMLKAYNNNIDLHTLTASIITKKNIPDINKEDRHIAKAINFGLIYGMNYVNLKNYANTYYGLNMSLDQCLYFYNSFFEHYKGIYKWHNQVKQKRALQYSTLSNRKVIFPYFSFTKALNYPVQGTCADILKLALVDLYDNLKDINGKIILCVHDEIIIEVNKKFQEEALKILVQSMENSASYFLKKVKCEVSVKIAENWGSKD

## O=c1nc(/C=C/c2ccc(Br)cc2)oc2ccccc12 [KU0052629]
'DNA Pol' of the 186 hits list (screen value); 90 min, 10 µM
  DNA Pol: 39
DRC-1; 10'; conc 2.5
  % inhibition Apo pol 10': -0.8795%
DRC-1; 10'; conc 5
  % inhibition Apo pol 10': 1.877%
DRC-1; 10'; conc 10
  % inhibition Apo pol 10': 5.765%
DRC-1; 10'; conc 20
  % inhibition Apo pol 10': 17.2321%
DRC-1; 10'; conc 40
  % inhibition Apo pol 10': 88.0772%
DRC-1; 10'; conc 80
  % inhibition Apo pol 10': 96.3156%
DRC-1; 90'; conc 2.5
  % inhibition Apol 90': -3.77%
DRC-1; 90'; conc 5
  % inhibition Apol 90': -1.711%
DRC-1; 90'; conc 10
  % inhibition Apol 90': 2.797%
DRC-1; 90'; conc 20
  % inhibition Apol 90': 11.2319%
DRC-1; 90'; conc 40
  % inhibition Apol 90': 85.0713%
DRC-1; 90'; conc 80
  % inhibition Apol 90': 92.172%
DRC-1; 180'; conc 2.5
  % inhibition apPOL 180': -7.96%
DRC-1; 180'; conc 5
  % inhibition apPOL 180': -5.094%
DRC-1; 180'; conc 10
  % inhibition apPOL 180': -1.853%
DRC-1; 180'; conc 20
  % inhibition apPOL 180': 4.7876%
DRC-1; 180'; conc 40
  % inhibition apPOL 180': 80.0065%
DRC-1; 180'; conc 80
  % inhibition apPOL 180': 94.1472%
DRC-2; 5'; conc 2.5
  % inhibition Apo pol 5': 6%
DRC-2; 5'; conc 5
  % inhibition Apo pol 5': -1.24%
DRC-2; 5'; conc 10
  % inhibition Apo pol 5': 6%
DRC-2; 5'; conc 20
  % inhibition Apo pol 5': 35%
DRC-2; 5'; conc 40
  % inhibition Apo pol 5': 60%
DRC-2; 5'; conc 80
  % inhibition Apo pol 5': 61%
DRC-2; 5'; concentration 2.5
  % inhibition Apo pol 5': 6%
DRC-2; 5'; concentration 10
  % inhibition Apo pol 5': 6%
DRC-2; 40'; conc 2.5
  % inhibition Apol 40': 8%
DRC-2; 40'; conc 5
  % inhibition Apol 40': -2.13%
DRC-2; 40'; conc 10
  % inhibition Apol 40': 5.6%
DRC-2; 40'; conc 20
  % inhibition Apol 40': 48%
DRC-2; 40'; conc 40
  % inhibition Apol 40': 77%
DRC-2; 40'; conc 80
  % inhibition Apol 40': 75%
DRC-2; 40'; concentration 2.5
  % inhibition Apol 40': 8%
DRC-2; 90'; conc 2.5
  % inhibition ApPOL 90': 8%
DRC-2; 90'; conc 5
  % inhibition ApPOL 90': -2%
DRC-2; 90'; conc 10
  % inhibition ApPOL 90': 5%
DRC-2; 90'; conc 20
  % inhibition ApPOL 90': 45%
DRC-2; 90'; conc 40
  % inhibition ApPOL 90': 79%
DRC-2; 90'; conc 80
  % inhibition ApPOL 90': 79%
DRC-2; 90'; concentration 2.5
  % inhibition ApPOL 90': 8%
DRC-2; 90'; concentration 40
  % inhibition ApPOL 90': 79%
DRC-2; 90'; concentration 80
  % inhibition ApPOL 90': 79%
DRC-2; 180'; conc 2.5
  % inhibition apPOL 180': 6%
DRC-2; 180'; conc 5
  % inhibition apPOL 180': -4%
DRC-2; 180'; conc 10
  % inhibition apPOL 180': 2.72%
DRC-2; 180'; conc 20
  % inhibition apPOL 180': 37%
DRC-2; 180'; conc 40
  % inhibition apPOL 180': 79%
DRC-2; 180'; conc 80
  % inhibition apPOL 180': 79%
DRC-2; 180'; concentration 2.5
  % inhibition apPOL 180': 6%
DRC-2; 180'; concentration 40
  % inhibition apPOL 180': 79%
DRC-2; 180'; concentration 80
  % inhibition apPOL 180': 79%
Primary screen value, "DNA Pol"; 90 min, 10 µM
  DNA Pol: 39

## Cc1cc(C)c(O)c(/N=C/c2cc([N+](=O)[O-])cc(Br)c2O)c1 [KU0046272]
DRC-1; 10'; concentration 2.5
  % inhibition Apo pol 10': 3.169%
DRC-1; 10'; concentration 5
  % inhibition Apo pol 10': -1.228%
DRC-1; 10'; concentration 10
  % inhibition Apo pol 10': 12.3955%
DRC-1; 10'; concentration 20
  % inhibition Apo pol 10': 36.9804%
DRC-1; 10'; concentration 40
  % inhibition Apo pol 10': 60.3951%
DRC-1; 10'; concentration 80
  % inhibition Apo pol 10': 90.16%
DRC-1; 90'; concentration 2.5
  % inhibition Apol 90': -6.623%
DRC-1; 90'; concentration 5
  % inhibition Apol 90': -11.6285%
DRC-1; 90'; concentration 10
  % inhibition Apol 90': 2.689%
DRC-1; 90'; concentration 20
  % inhibition Apol 90': 23.1885%
DRC-1; 90'; concentration 40
  % inhibition Apol 90': 44.716%
DRC-1; 90'; concentration 80
  % inhibition Apol 90': 85.7846%
DRC-1; 180'; concentration 2.5
  % inhibition apPOL 180': -11.4225%
DRC-1; 180'; concentration 5
  % inhibition apPOL 180': -16.1751%
DRC-1; 180'; concentration 10
  % inhibition apPOL 180': -3.511%
DRC-1; 180'; concentration 20
  % inhibition apPOL 180': 14.6468%
DRC-1; 180'; concentration 40
  % inhibition apPOL 180': 35.3485%
DRC-1; 180'; concentration 80
  % inhibition apPOL 180': 85.8895%
DRC-2; 5'; concentration 2.5
  % inhibition Apo pol 5': 7%
DRC-2; 5'; concentration 5
  % inhibition Apo pol 5': 6%
DRC-2; 5'; concentration 10
  % inhibition Apo pol 5': 4.64%
DRC-2; 5'; concentration 20
  % inhibition Apo pol 5': 17%
DRC-2; 5'; concentration 40
  % inhibition Apo pol 5': 41%
DRC-2; 5'; concentration 80
  % inhibition Apo pol 5': 54%
DRC-2; 40'; concentration 2.5
  % inhibition Apol 40': 2%
DRC-2; 40'; concentration 5
  % inhibition Apol 40': 4.73%
DRC-2; 40'; concentration 10
  % inhibition Apol 40': 4%
DRC-2; 40'; concentration 20
  % inhibition Apol 40': 19%
DRC-2; 40'; concentration 40
  % inhibition Apol 40': 47%
DRC-2; 40'; concentration 80
  % inhibition Apol 40': 72%
DRC-2; 90'; concentration 2.5
  % inhibition ApPOL 90': 1%
DRC-2; 90'; concentration 5
  % inhibition ApPOL 90': 3.45%
DRC-2; 90'; concentration 10
  % inhibition ApPOL 90': 2.43%
DRC-2; 90'; concentration 20
  % inhibition ApPOL 90': 20%
DRC-2; 90'; concentration 40
  % inhibition ApPOL 90': 47%
DRC-2; 90'; concentration 80
  % inhibition ApPOL 90': 75%
DRC-2; 180'; concentration 2.5
  % inhibition apPOL 180': -0.688%
DRC-2; 180'; concentration 5
  % inhibition apPOL 180': 1.3%
DRC-2; 180'; concentration 10
  % inhibition apPOL 180': 1.29%
DRC-2; 180'; concentration 20
  % inhibition apPOL 180': 17%
DRC-2; 180'; concentration 40
  % inhibition apPOL 180': 40%
DRC-2; 180'; concentration 80
  % inhibition apPOL 180': 75%
conc. 20; 5'; DRC-2
  % inhibition Apo pol 5': 17%
conc. 20; 180'; DRC-2
  % inhibition apPOL 180': 17%
conc. 40; 40'; DRC-2
  % inhibition Apol 40': 47%
conc. 40; 90'; DRC-2
  % inhibition ApPOL 90': 47%
conc. 80; 90'; DRC-2
  % inhibition ApPOL 90': 75%
conc. 80; 180'; DRC-2
  % inhibition apPOL 180': 75%
Primary screen value by plate and well; 90 min, 10 µM
  DNA Pol: 45
Primary screen value of the 186 hits; unit not given; 90 min, 10 µM
  DNA Pol: 45

## CSC1=C(C#N)C(=C(C#N)C#N)NC(c2ccccc2)=N1 [Molecule 2]
[1]
  IC50: 5.66 µM

## CN1CC(=Cc2ccco2)C(=O)C(=Cc2ccco2)C1 [Molecule 65, CN1CC(=Cc2ccco2)C(=O)C(=Cc2ccco2)C1]
'DNA Pol'; screening value, unit not given; 90 min, 10 µM
  DNA Pol: 69
DRC-1; 10'; concentration 2.5
  % inhibition Apo pol 10': 22.1284%
DRC-1; 10'; concentration 5
  % inhibition Apo pol 10': 42.6789%
DRC-1; 10'; concentration 10
  % inhibition Apo pol 10': 54.6654%
DRC-1; 10'; concentration 20
  % inhibition Apo pol 10': 60.4298%
DRC-1; 10'; concentration 40
  % inhibition Apo pol 10': 67.6613%
DRC-1; 10'; concentration 80
  % inhibition Apo pol 10': 69.4432%
DRC-1; 90'; concentration 2.5
  % inhibition Apol 90': 10.4669%
DRC-1; 90'; concentration 5
  % inhibition Apol 90': 22.0675%
DRC-1; 90'; concentration 10
  % inhibition Apol 90': 32.2145%
DRC-1; 90'; concentration 20
  % inhibition Apol 90': 39.744%
DRC-1; 90'; concentration 40
  % inhibition Apol 90': 50.5992%
DRC-1; 90'; concentration 80
  % inhibition Apol 90': 58.0625%
DRC-1; 180'; concentration 2.5
  % inhibition apPOL 180': 4.595%
DRC-1; 180'; concentration 5
  % inhibition apPOL 180': 8.893%
DRC-1; 180'; concentration 10
  % inhibition apPOL 180': 17.702%
DRC-1; 180'; concentration 20
  % inhibition apPOL 180': 24.3352%
DRC-1; 180'; concentration 40
  % inhibition apPOL 180': 38.0441%
DRC-1; 180'; concentration 80
  % inhibition apPOL 180': 50.1748%
DRC-2, 5', concentration 2.5
  % inhibition Apo pol 5': 27%
DRC-2, 5', concentration 5
  % inhibition Apo pol 5': 34%
DRC-2, 5', concentration 10
  % inhibition Apo pol 5': 42%
DRC-2, 5', concentration 20
  % inhibition Apo pol 5': 45%
DRC-2, 5', concentration 40
  % inhibition Apo pol 5': 49%
DRC-2, 5', concentration 80
  % inhibition Apo pol 5': 47%
DRC-2, 40', concentration 2.5
  % inhibition Apol 40': 21%
DRC-2, 40', concentration 5
  % inhibition Apol 40': 27%
DRC-2, 40', concentration 10
  % inhibition Apol 40': 37%
DRC-2, 40', concentration 20
  % inhibition Apol 40': 43%
DRC-2, 40', concentration 40
  % inhibition Apol 40': 52%
DRC-2, 40', concentration 80
  % inhibition Apol 40': 55%
DRC-2, 90', concentration 2.5
  % inhibition ApPOL 90': 17%
DRC-2, 90', concentration 5
  % inhibition ApPOL 90': 21%
DRC-2, 90', concentration 10
  % inhibition ApPOL 90': 32%
DRC-2, 90', concentration 20
  % inhibition ApPOL 90': 38%
DRC-2, 90', concentration 40
  % inhibition ApPOL 90': 50%
DRC-2, 90', concentration 80
  % inhibition ApPOL 90': 56%
DRC-2, 180', concentration 2.5
  % inhibition apPOL 180': 8%
DRC-2, 180', concentration 5
  % inhibition apPOL 180': 8%
DRC-2, 180', concentration 10
  % inhibition apPOL 180': 20%
DRC-2, 180', concentration 20
  % inhibition apPOL 180': 28%
DRC-2, 180', concentration 40
  % inhibition apPOL 180': 42%
DRC-2, 180', concentration 80
  % inhibition apPOL 180': 54%
Conc 2.5 (unit not given); 5'; DRC-2
  % inhibition Apo pol 5': 27%
Conc 2.5 (unit not given); 40'; DRC-2
  % inhibition Apol 40': 21%
Conc 2.5 (unit not given); 180'; DRC-2
  % inhibition apPOL 180': 8%
Conc 5 (unit not given); 40'; DRC-2
  % inhibition Apol 40': 27%
Conc 5 (unit not given); 90'; DRC-2
  % inhibition ApPOL 90': 21%
Conc 5 (unit not given); 180'; DRC-2
  % inhibition apPOL 180': 8%
Conc 10 (unit not given); 5'; DRC-2
  % inhibition Apo pol 5': 42%
Conc 40 (unit not given); 180'; DRC-2
  % inhibition apPOL 180': 42%
Primary screen hit value, DNA Pol (186 hits); 90 min, 10 µM
  DNA Pol: 69

## COc1ccc(/C=C/c2cc(C(=O)O)c3ccccc3n2)cc1 [Molecule 5]
[1]
  IC50: 3.86 µM

## O=C(c1c[nH]c2ncccc12)N1CCCCCC1 [Molecule 51]
[1]
  IC50: 21.5 µM
